Measured values: PMC5049785, “Characterization of Novel Antimalarial Compound ACT-451840: Preclinical Assessment of Activity and Dose–Efficacy Modeling” (PLoS Medicine, 2016)
Like-named read-outs stand apart in the source and are kept apart here.

Experiments:
[1] = tested on: P. falciparum clinical isolates (Papua, Indonesia); experiment: Ex vivo drug susceptibility, P. falciparum clinical isolates; format: cell-based, Plasmodium falciparum; settings: Plasmodium falciparum, read-out: median IC50
Procedure: (§1) […]. Thick blood films made from each well were stained with 5% Giemsa solution for 30 min and examined microscopically. The number of schizonts per 200 asexual-stage parasites was determined for each drug concentration and normalized to the control well.

[2] = tested on: P. vivax clinical isolates (Papua, Indonesia); experiment: Ex vivo drug susceptibility, P. vivax clinical isolates; format: cell-based, Plasmodium vivax; settings: Plasmodium vivax, read-out: median IC50
Procedure: as §1

[3] = tested on: P. falciparum strain 3D7 (MR4); design: method as in PMID 16735432; settings: 10 x IC50; cited from earlier work
[4] = tested on: P. falciparum K1 (Thailand); experiment: [3H]-hypoxanthine incorporation assay, K1; format: cell-based, Plasmodium falciparum; settings: Plasmodium falciparum
[5] = tested on: P. falciparum 7G8 (Brazil); experiment: [3H]-hypoxanthine incorporation assay, 7G8; format: cell-based, Plasmodium falciparum; settings: Plasmodium falciparum
[6] = tested on: P. falciparum TM90C2A (Thailand); experiment: [3H]-hypoxanthine incorporation assay, TM90C2A; format: cell-based, Plasmodium falciparum; settings: Plasmodium falciparum
[7] = tested on: P. falciparum V1/S (Vietnam); experiment: [3H]-hypoxanthine incorporation assay, V1/S; format: cell-based, Plasmodium falciparum; settings: Plasmodium falciparum, read-out: 50% inhibitory concentration (IC50)
[8] = tested on: P. falciparum D6 (Sierra Leone); experiment: [3H]-hypoxanthine incorporation assay, D6; format: cell-based, Plasmodium falciparum; settings: Plasmodium falciparum
Cam3.II^C580Y parasites = experiment: microbe, parasite or virus in culture; format: cell-based, P. falciparum; settings: for IC50: Plasmodium falciparum, 72 h
Procedure: (§2) Parasites were cultured at Columbia University Medical Center (New York, USA) as previously described (1). Cam3.II and V1/S parasites, which had been genetically engineered to express K13 wild-type or K13 C580Y were seeded in a 96-well plate at 0.2% parasitemia and 1% hematocrit (2). […] Parasites were then stained with SYBR Green I (Invitrogen) and MitoTracker Deep Red (ThermoFisher Scientific) for 20 minutes at 37 °C (3). Stained parasites were detected using a BD Accuri 6 Flow Cytometer, and analyzed using FlowJo Software. IC50 values were determined by nonlinear regression using GraphPad Prism 6.0. For statistical analyses, Student’s t-tests were performed, and significance was set at P < 0.05.
(§3) Values indicate mean ± SEM, shown in nM. Significance determined by Student's t-test against parental lines.

[9] = tested on: Cam3.II^rev parasites (K13 wild-type); experiment: microbe, parasite or virus in culture; format: cell-based, P. falciparum; settings: for IC50: Plasmodium falciparum, 72 h
Procedure: as §2, §3

[10] = tested on: GFP-transfected P. berghei ANKA strain; experiment: In vivo efficacy, P. berghei mouse model; design: species or system Plasmodium berghei in female NMRI mice; settings: 100 mg/kg quadruple-dose regimen
Procedure: In vivo efficacy against P. berghei was conducted at the Swiss TPH as previously described, with the modification that female NMRI mice from Harlan (Horst, The Netherlands) (n = 3) were infected with a GFP-transfected P. berghei ANKA strain (kindly donated by A. P. Waters and C. J. Janse, Leiden University Medical Center, The Netherlands) and parasitemia was determined using standard flow cytometry techniques. ACT-451840 was dissolved or suspended in corn oil before dosing and administered 24 h after infection (single-dose regimen) or 24, 48, and 72 h after infection (triple-dose regimen). With the single-dose regimen, blood was collected on Day 3 (72 h after infection). Samples for the triple-dose regimens were collected on Day 4 (96 h after infection). Antimalarial activity was calculated as the difference between the mean percent parasitemia for the control and treated groups expressed as a percent relative to the control group, consisting of five mice. Control mice were euthanized on Day 4 in order to prevent death typically occurring on Day 6. For the consistency in PK/PD modeling, Day 5 instead of Day 6 was considered the day of death, because treated animals were always euthanized one day before their natural death for animal welfare reasons. Animals were considered cured if there were no detectable parasites on Day 30 post-infection. To confirm the reliability of this assumption, blood from the surviving mice in curative experiments was inoculated into uninfected mice, and no parasitemia developed in these mice even after 30 d. The antimalarial efficacy is defined either as antimalarial activity or as survival: the two readouts of the P. berghei murine model.

[11] = tested on: V1/S parasites (K13 wild-type); experiment: microbe, parasite or virus in culture; format: cell-based, P. falciparum
Procedure: as §2, §3

V1/S^C580Y parasites = experiment: microbe, parasite or virus in culture; format: cell-based, P. falciparum
Procedure: as §2, §3

[12] = tested on: P. falciparum NF54 strain; experiment: [3H]-hypoxanthine incorporation assay, NF54; format: cell-based, Plasmodium falciparum; settings: Plasmodium falciparum
Procedure: In vitro time-, stage-, and concentration-dependent effects were assessed using pyrimethamine as a stage-specific and slow-acting control, as described elsewhere.

[13] = tested on: P. falciparum W2 (Vietnam); experiment: [3H]-hypoxanthine incorporation assay, W2; format: cell-based, Plasmodium falciparum; settings: Plasmodium falciparum
[14] = tested on: P. falciparum PfNF54^0230/N3; experiment: In vivo efficacy, P. falciparum mouse model (GSK); settings: oral quadruple-dose regimen, once a day
Procedure: In vivo efficacy against P. falciparum was conducted at GSK according to the standard assay previously described. Female NODscidIL2Rγnull mice were engrafted with human erythrocytes and infected with the isolate P. falciparum PfNF54^0230/N3, a strain developed at GSK for growth in engrafted mice. […] Blood samples were collected on Days 3, 4, 5, 6, and 7 (n = 3 per time point) for parasitemia measurement by flow cytometry. Similarly, blood samples were collected at 0.5, 1, 2, 4, 6, 8, 12, 24, and 48 h after a single administration of 4.7 mg/kg of ACT-451840 to a parallel group of three P. falciparum-infected mice for PK parameters determination. Results are expressed exclusively as antimalarial activity in the P. falciparum murine model.

[15] = P. falciparum clinical isolates, n = 27 (closed symbols)
[16] = P. vivax clinical isolates, n = 34 (open symbols)
[17] = K1, read-out: 50% inhibitory concentration (IC50)
[18] = 7G8, read-out: 50% inhibitory concentration (IC50)
[19] = read-out: 50% inhibitory concentration (IC50)
[20] = D6, read-out: 50% inhibitory concentration (IC50)

In the case of `Clc1ccc2c(N3CCN(CCCN4CCN(c5ccnc6cc(Cl)ccc56)CC4)CC3)ccnc2c1` [Piperaquine], the IC50 [1, 15] is reported as 25 nM and the IC50 [2, 16] is reported as 14.8 nM.

In the case of `O=C1C(O)=C([C@H]2CC[C@H](c3ccc(Cl)cc3)CC2)C(=O)c2ccccc21` [atovaquone], the “lag phase in the killing curve” value [3] is listed as 48 h.

For `CCN(CC)Cc1cc(Nc2ccnc3cc(Cl)ccc23)ccc1O` [Amodiaquine], the IC50 [1, 15] was 16.8 nM and the IC50 [2, 16] was 12.3 nM.

Work on `C[C@H]1[C@H](OC(=O)CCC(=O)O)O[C@@H]2O[C@@]3(C)CC[C@H]4[C@H](C)CC[C@@H]1[C@@]24OO3` [Artesunate, artesunate] yielded an IC50 [4, 17] of 2.7 ± 0.4 nM, an IC50 [5, 18] of 1.8 ± 0.2 nM and an IC50 [6, 19] of 4.6 ± 1.7 nM. The IC50 [7] was 3.2 ± 0.5 nM, the IC50 [8, 20] was 7.1 ± 1.9 nM and the IC50 (Cam3.II^C580Y parasites) was 6.6 ± 0.3 nM. It also gave an IC50 [9] of 6.7 ± 0.7 nM, an IC50 [1, 15] of 2.6 nM and an IC50 [2, 16] of 2.9 nM. It also gave an infected mice cured [10] of 50%.

`OC(c1cc(C(F)(F)F)nc2c(C(F)(F)F)cccc12)C1CCCCN1` (stereo not shown) [Mefloquine, mefloquine] gave an IC50 fold change (Cam3.II^C580Y parasites; Cam3.II^C580Y versus Cam3.II^rev) of 1.2, an IC50 (Cam3.II^C580Y parasites) of 14 ± 0.9 nM and an IC50 fold change ([9]; Cam3.II^rev (parental reference line)) of 1.0. It also gave an IC50 [9] of 12 ± 1.5 nM, an IC50 ([11]; Plasmodium falciparum, 72 h) of 1.3 ± 0.4 nM and an IC50 fold change ([11]; V1/S (parental reference line)) of 1.0. It also gave an IC50 (V1/S^C580Y parasites; Plasmodium falciparum, 72 h) of 0.8 ± 0.3 nM, an IC50 fold change (V1/S^C580Y parasites; V1/S^C580Y versus V1/S) of 0.6 and an IC50 [1, 15] of 13.4 nM. It also gave an IC50 [2, 16] of 15.2 nM.

In the case of `CCc1nc(N)nc(N)c1-c1ccc(Cl)cc1` [Pyrimethamine, pyrimethamine], the IC50 ([12]; read-out: 50% inhibitory concentration (IC50), NF54, no resistance, mean ± SD, n = 3) is reported as 18 ± 0.8 nM, the IC50 ([4]; read-out: 50% inhibitory concentration (IC50), K1, resistance CQ, SUL, PYR, CYC, mean ± SD) is reported as 10100 nM and the IC50 ([13]; read-out: 50% inhibitory concentration (IC50), W2, resistance CQ, SUL, PYR, CYC, mean ± SD) is reported as 13900 nM. The IC50 ([5]; read-out: 50% inhibitory concentration (IC50), 7G8, resistance CQ, PYR, CYC, mean ± SD) was 10500 nM, the IC50 ([6]; read-out: 50% inhibitory concentration (IC50), resistance CQ, PYR, MFQ, CYC, mean ± SD) was 19200 nM and the IC50 ([7]; V1/S, resistance CQ, SUL, PYR, CYC, mean ± SD) was 21900 nM. It also gave an IC50 ([8]; read-out: 50% inhibitory concentration (IC50), D6, resistance MFQ, mean ± SD) of 5.4 ± 1.3 nM.

In the case of `CCN(CC)CCCC(C)Nc1ccnc2cc(Cl)ccc12` (stereo not shown) [Chloroquine, chloroquine], the IC50 ([12]; NF54, read-out: 50% inhibitory concentration (IC50)) is reported as 11 ± 2.1 nM, the IC50 [4, 17] is reported as 303 ± 37 nM and the IC50 ([13]; W2, read-out: 50% inhibitory concentration (IC50)) is reported as 326 ± 38 nM. For the same compound, the IC50 [5, 18] was 137 ± 21 nM, the IC50 [6, 19] was 174 ± 19 nM and the IC50 [7] was 458 ± 66 nM. For the same compound, the IC50 [8, 20] was 16 ± 1.2 nM, the IC50 [1] was 101 nM and the IC50 [2] was 43.9 nM. For the same compound, the “effective dose resulting in 90% antimalarial activity (ED90)” value [14] was 4.9 mg/kg.

In the case of `C[C@@H]1CC[C@H]2[C@@H](C)C(=O)O[C@@H]3O[C@@]4(C)CC[C@@H]1[C@]32OO4` [artemisinin], the “parasite clearance time to kill 99.9% of the initial population” value [3] is given as “less than 24 h”.
